Measured values: patent publication US20110294794A1, “TREATMENT OF PROTEINOPATHIES USING A FARNESYL TRANSFERASE INHIBITOR” (Link Medicine Corporation, priority 2008, published 2011)
Entries after “also recorded” stand apart in the source; their conditions may differ. Like-named read-outs stand apart in the source and are kept apart here. One block for each compound: values may come before it.

Key:
LC3-II = LC3-II protein level (autophagic flux) in SH-SY5Y cells with or without bafilomycin A1; assay type: cell-based, human; settings: bafilomycin A1 (10 nM) alone, without test compound
Description: Data are represented as mean+/−SEM with statistical significance by paired student's t-test (n=4, p<0.05).
The observed increase in LC3-positive autophagosomes could result, in principle, from either an increased flux through the autophagy pathway or decreased autophagosome degradation (Pankiv, S., et al. J Biol Chem 282, 24131-24145 (2007); Kamada, Y., et al. J Cell Biol 150, 1507-1513 (2000)). […] In order to ascertain an increase in autophagic flux, cells were co-treated with LNK-754-TS and an inhibitor of autophagosome-lysosome fusion, bafilomycin A1 (10 nM). Bafilomycin treatment alone caused a 100% increase in the amount of LC3-II, consistent with the fact that it inhibits autophagosome degradation (FIG. 8c).
(§1) The mechanism of autophagy stimulation by LNK-754-TS appears distinct from that of the drug rapamycin. Rapamycin is a well-characterized autophagy stimulator that acts through inhibition of mTOR, a kinase involved in nutrient signaling and regulation of cell growth and survival. […] To further contrast the mechanism of autophagy stimulation by LNK-754-TS to that of rapamycin, a collection of mRNA transcripts of autophagy proteins were measured (FIG. 8d). Selected mRNAs from untreated SH-SY5Y cells were compared to mRNAs from cells treated with LNK-754-TS (100 nM), tipifarnib (100 nM), or rapamycin (1 μM).

[1] = test system: 3T3 H-ras (61L) xenograft tumor; settings: continuous infusion, cited from earlier work
GGTase [2] = test: In vitro GGTase inhibition by LNK-754 (Table 5A); assay type: biochemical
Description: (§2) The selectivity of LNK-754 for FTase over GGTAse is shown below in Table 5A.

GGTase [3] = target: T1, GGTase (Homo sapiens, UniProt P49354+P53609); test: In vitro GGTase inhibition by LNK-754 (Table 5A); assay type: biochemical; settings: general statement
Description: as §2

α-synuclein = test: Masliah D-line human WT α-synuclein transgenic mouse, α-synuclein immunoreactivity / ELISA; assay type: in vivo; settings: for number of α-synuclein positive neurons: lower-dose trial (FIG. 2B); for levels of α-synuclein in the hippocampus / α-synuclein inclusions vs. transgenic animals administered vehicle alone: α-synuclein transgenic mice
Method: Animals and treatments: Male and female human WT alpha-synuclein over-expressing transgenic mice^32 at 6 months of age were given vehicle (10% beta-cyclodextrin) or LNK-754-TS (0.09, 0.9 and 9 mg/kg) per oral gavage twice daily for 3 months or animals at 7 months of age were given vehicle (2.5% beta-cyclodextrin) or LNK-754-TS (2 mg/kg) once every three days for 3 months. Male and female TAU transgenic mice expressing TAU441 bearing the missense mutations V337M^50 and R406W under the control of the murine Thy-1 promoter with a CB6xC57BL/6 background were 5 months old at the time when the oral treatment for three months with LNK-754-TS (0.9 and 0.09 mg/kg) as well as vehicle (2.5% beta-cyclodextrin) was started. Female human APP/PS1 (APP (London V7171)/PS1(A246E)) over-expressing transgenic mice were treated with LNK-754-TS (0.9 mg/kg) or vehicle (2.5% beta-cyclodextrin) for 2 months or 12 days.
Immunohistochemistry and quantification of stained cells: For evaluation of α-synuclein immunoreactivity (IR), 5 sagittal cryo-cut sections (10 μm slice thickness) from five different layers were used for counting of IR cells in the cortex and hippocampus. Brain sections were stained with a monoclonal human α-synuclein specific antibody (Alexis®; Cat# 804-258-L001; dilution 1:5), followed by a secondary Ab Cy 2-Goat Anti-Rat (Jackson ImmunoResearch®; dilution 1:200). IR positive cells were quantified using specialized image analysis software (Image Pro Plus, version 4.5.1.29). For Tau transgenic animals, 5 μm thick coronal paraffin sections were stained with the monoclonal mouse anti-human TAU-antibodies (AT180—1:100; HT—1:500) and visualized using an anti-mouse Cy3 secondary antibody (1:500, Jackson laboratories®). Images were evaluated with ImageProPlus (version 6.2) image analysis software. For APP/PS1 transgenic animals sagittal hemisections (40 μm) were collected and processed for Aβ immunohistochemistry using an 6E10 antibody, Thioflavin-S staining Primary antibodies were detected by the ABC method.
ELISA quantification of α-Synuclein in the α-Synuclein transgenic animals: Brain homogenate was centrifuged and the supernatant saved as fraction F1. The pellet was washed then resuspended and saved as fraction F2. Plates (Nunc, 464718) were coated with SYN-1 (1:1000, BD Transduction Labs, 610787). Monomeric recombinant α-synuclein was included as an internal standard. Biotinylated antibody FL-140 (1:300, Santa Cruz Biotechnology, sc-10717-B) and ExtrAvidin-Alkaline phosphatase (3:5000, Sigma, E2636) was added followed by pNPP substrate solution (Sigma, N1891). Raw absorbance (405 nm) was then normalized to the total protein concentration of each sample. In the APP/PS1 transgenic animal, brains were homogenized and the supernatant, Faction 1, was separated from the pellet. The pellets were further processed with addition of NP40 and Triton X-100. The supernatant was separated from the pellet as the insoluble membrane, Fraction 2, and was dissolved in 8M Guanidine. To quantify the amount of human Aβ-40 and Aβ-42, ELISA kits were used (The Genetics Company, Zurich, Switzerland).
In FIG. 2 is shown efficacy data for LNK-754-TS in the Masliah D-line transgenic α-synuclein mouse (an accepted model of synucleinopathies). Two trials are shown, the first (FIG. 2A) at higher doses of LNK-754-TS: 45 mg/kg and 9 mg/kg. […] The second trial (FIG. 2B) explores the low dose range for efficacy in the α-synuclein models. […]
After dosing with LNK-754-TS for three months (twice daily at 0.09 mg/kg or 0.9 mg/kg), α-synuclein accumulation in the brain was analyzed by immunohistochemical (human specific α-synuclein immunoreactivity) and biochemical (α-synuclein ELISA) means. […]

GGTase [4] = target: T1, GGTase; settings: general statement; cited from earlier work
LC3 mRNA = LC3 mRNA (qPCR) in differentiated SH-SY5Y cells; assay type: cell-based, human; settings: 100 nM, 72 hr
Method: (§3) Cell culture and immunocytochemistry: SH-SY5Y cells were grown in DMEM medium supplemented with 10% FBS and 1% pen/strep at 37° C. and 5% CO2. Cells were differentiated with 10 μM retinoic acid for 48 hr, then treated with the either rapamycin (100 nM or 1 μM) or with 100 nM of either LNK-754-TS or Tipifarnib for 48-72 hr. Cells were then fixed with 4% paraformaldehyde and stained for LC3 (Novus biological, NB100-2331, dilution 1:800) followed by secondary Alexa-564 anti-Rabbit (A-11011).
(§4) Quantitative real-time PCR: Gene expression profiles were done by qPCR on series of known autophagy genes. RNA was extracted with Tri-reagent (Sigma), and cDNAs generated using iScript (Biorad). qPCR analysis was carried out in a 96 well plate using an iCycler (BioRad, Hercules, Calif.), and iQ SYBR Green Supermix (Biorad) according to the manufacturer's specifications.
Such increases in LC3 mRNA levels are associated in the literature with stimulation of macroautophagy. This supports the hypothesis that at doses as low as 1 nM in this in vitro system there is stimulation of autophagy in these cells.
(§5) Autophagy was measured in a neuroblastoma cell culture system by three distinct approaches: quantitation of autophagy-related mRNA's, immunofluorescence microscopy of autophagosomes, and biochemical detection of the microtubule-associated protein 1 light chain 3 (LC3) a key protein that is required for autophagosome formation. Differentiated human neuroblastoma cells (SH-SY5Y) were treated for 72 hr with LNK-754-TS (0.01-100 nM), Zarnestra® (also referred to herein as tipifarnib) (100 nM) or rapamycin (1 μM).

LC3 = test: Punctate LC3 immunostaining in SH-SY5Y cells; assay type: cell-based, human; settings: 100 nM (FIG. 8b)
Method: as §3, §5

[5] = Pharmacokinetics of Zarnestra in C57BL/6 mice, oral administration; assay type: in vivo, mouse; settings: 5 mg/kg p.o. single dose
Method: LLOQ: brain 4 ng/g; plasma 50 ng/ml.
The pharmacokinetic profiles of LNK-754-TS and Zarnestra® were analyzed using methods known in the art. The results are shown in FIGS. 13-14 and the tables below.

Atg1 = test: mRNA levels of autophagy-related genes (Atg1) in SH-SY5Y cells; assay type: cell-based, human; settings: 100 nM (FIG. 8d)
Method: as §4, §1

Structure (SMILES): CO/C1=C\C(C)=C\[C@@H](C)[C@@H](O)[C@@H](C)C/C(C)=C/C=C/[C@H](OC)[C@@H]([C@@H](C)[C@@H](O)[C@H](C)[C@@]2(O)C[C@@H](O)[C@H](C)[C@@H](C(C)C)O2)OC1=O [bafilomycin A1, reference compound]
increase in the amount of LC3-II (LC3-II): 100%

Structure (SMILES): C#Cc1cccc(-c2cc(=O)n(C)c3ccc([C@](O)(c4ccc(Cl)cc4)c4cncn4C)cc23)c1 [LNK-754, (R)-6-[(4-chlorophenyl)-hydroxyl-(1-methyl-1-H-imidazol-5-yl)-methyl]-4-(3-ethynylphenyl)-1-methyl-2-(1H)-quinonlinone]
continuous serum level at which significant inhibition of tumor growth was seen ([1]; 7 day treatment): above 100 ng/mL
inhibition of Ras farnesylation at which significant inhibition of tumor growth was seen ([1]; tumor tissue): at least 50%
GGTI/FTI (GGTase [2]; H-Ras substrates): 580
GGTI/FTI (GGTase [2]; K-Ras substrates): 40.11
GGTase inhibitory activity (GGTase [3]): little to no
number of α-synuclein positive neurons (α-synuclein; 0.09 mg/kg): significantly lowered
number of α-synuclein positive neurons (α-synuclein; 0.9 mg/kg): significantly lowered
number of α-synuclein positive neurons in the brain (α-synuclein; 9 mg/kg PO BID 3 months, higher-dose trial (FIG. 2A)): significantly lower
number of α-synuclein positive neurons in the brain (α-synuclein; 45 mg/kg PO BID 3 months, higher-dose trial (FIG. 2A)): did not significantly lower; also recorded: not found to significantly lower
number of α-synuclein positive neurons in the brain (α-synuclein; lower doses, 0.09 mg/kg to 9 mg/kg (FIGS. 2A and 2B)): significant reduction
levels of α-synuclein in the hippocampus (α-synuclein): decrease
α-synuclein inclusions vs. transgenic animals administered vehicle alone (α-synuclein): fewer

t1/2z ([5]; Blood): 1.31 h
AUC(0-t) ([5]; Brain): 44.50 ng·h/g
AUC(0-[…]) ([5]; Brain): 86.86 ng·h/g
t1/2z ([5]; Brain): 8.10 h
Structure (SMILES): Cn1cncc1[C@@](N)(c1ccc(Cl)cc1)c1ccc2c(c1)c(-c1cccc(Cl)c1)cc(=O)n2C [Zarnestra®, (R)-6-(Amino(4-chlorophenyl)(1-methyl-1H-imidazol-5-yl)methyl)-4-(3-chlorophenyl)-1-methyl-2(1H)-quinolinone, reference compound]
GGTase inhibitory activity (GGTase [4]): little to no
LC3 mRNA level (LC3 mRNA): also works; also recorded: upregulated
LC3 mRNA level (LC3 mRNA; listed as tipifarnib): increased
punctate LC3 immunostaining (number of LC3-positive puncta) (LC3): distinct increase
punctate LC3 immunostaining (number of LC3-positive puncta) (LC3; listed as tipifarnib): increased
levels of α-synuclein in the hippocampus (α-synuclein): decrease
α-synuclein inclusions vs. transgenic animals administered vehicle alone (α-synuclein): fewer
mRNA levels of a set of autophagy-related genes (Atg1): unaffected
